Test results published in ChEMBL document CHEMBL5352449, “Exploration and biological evaluation of 7-methoxy-3-methyl-1H-chromeno[4,3-c]pyrazol-4-one as an activating transcription factor 3 inducer for managing metabolic syndrome” (Eur J Med Chem, 2023).
Activity calls are given as the source filed them. No cut-off for these calls is given here.

What was measured:
[1] = Induction of AFT3 gene expression in mouse 3T3-L1 cells assessed as relative gene expression level at 50 uM incubated for 8 days by real time-PCR analysis (reference value: 1.00); format: functional; conditions: time 8 day
3T3-L1 [2] = assay: (§1) Cytotoxicity against mouse 3T3-L1 adipocytes assessed as reduction in cell viability; format: toxicity, cell-based; conditions: 3t3-l1
3T3-L1 [3] = assay: Downregulation of lipid accumulation in mouse 3T3-L1 pre-adipocyte model at 50 to 100 uM incubated for […] by Oil Red O staining based analysis; format: functional, cell-based; conditions: dose 50-100 µM
3T3-L1 [4] = assay: Induction of AFT3 expression in mouse 3T3-L1 cells at 50 to 100 uM incubated for 6 days by Western blot analysis; format: functional, cell-based; conditions: dose 50-100 µM, time 6.0 day
[5] = as §1; format: toxicity, cell-based; conditions: 3T3-L1 adipocytes
Mus musculus [6] = assay: Inhibition of high fat diet induced metabolic disturbance in C57BL/6 mouse model assessed as reduction in size of epididymal white adipose tissue at 40 mg/kg, ip; format: functional, organism-based
Mus musculus [7] = assay: Inhibition of high fat diet induced metabolic disturbance in C57BL/6 mouse model assessed as reduction in […] adipose tissue weight at 40 mg/kg, ip; format: functional, organism-based
Mus musculus [8] = species: Mus musculus; assay: Inhibition of high fat diet induced metabolic disturbance in C57BL/6 mouse model assessed as reduction in hypertrophic iWAT adipocytes by H and E staining based analysis; format: functional, cell-based
Mus musculus [9] = assay: Hepatoprotective activity in high fat diet induced C57BL/6 mouse assessed as reduction in GOT level at 40 mg/kg administered thrice weekly; format: functional, organism-based
Mus musculus [10] = species: Mus musculus; assay: Anti-hyperglycemic activity in 16 hrs overnight fasted high fat diet induced C57BL/6 mouse assessed as reduction in glucose intolerance measured at upto 120 mins; format: functional, organism-based
Mus musculus [11] = assay: Inhibition of high fat diet induced metabolic disturbance in C57BL/6 mouse model assessed as reduction in inguinal white adipose tissue weight at 40 mg/kg, ip; format: functional, organism-based
Mus musculus [12] = assay: Hepatoprotective activity in high fat diet induced C57BL/6 mouse assessed as reduction in GPT level at 40 mg/kg administered thrice weekly; format: functional, organism-based
Mus musculus [13] = assay: Protection against hyperlipidemia in high fat diet-fed C57BL/6 mouse model assessed as reduction in total plasma cholesterol level at 40 mg/kg administered thrice weekly; format: functional, organism-based
Mus musculus [14] = species: Mus musculus; assay: Inhibition of high fat diet induced metabolic disturbance in C57BL/6 mouse model assessed as reduction in hypertrophic eWAT adipocytes by H and E staining based analysis; format: functional, cell-based
[15] = Inhibition of high fat diet induced metabolic disturbance in C57BL/6 mouse model assessed as reduction in body weight at 40 mg/kg, ip administered 3 times weekly for 10 weeks (reference value: 34.86 +/-[…]); format: functional
Mus musculus [16] = assay: Inhibition of high fat diet induced metabolic disturbance in C57BL/6 mouse model assessed as reduction in epididymal white adipose tissue weight at 40 mg/kg, ip; format: functional, organism-based
Mus musculus [17] = species: Mus musculus; assay: Anti-hyperglycemic activity in 16 hrs overnight fasted high fat diet induced C57BL/6 mouse assessed as reduction in insulin resistance measured at upto 120 mins; format: functional, organism-based
Mus musculus [18] = assay: Reduction in hepatic steatosis in high fat diet induced metabolic disturbance in C57BL/6 mouse model at 40 mg/kg, ip by hematoxylin and eosin staining based assay; format: functional, organism-based
Mus musculus [19] = assay: Protection against hyperlipidemia in high fat diet-fed C57BL/6 mouse model assessed as reduction in hypo-triglyceridemic level at 40 mg/kg administered thrice weekly; format: functional, organism-based

Row | SMILES | Activity [1] | also measured
1 | O=C(O)c1coc2c1c(=O)oc1c3ccccc3ccc21 | 1.06 | –
2 | Cc1n[nH]c2c1c(=O)oc1c3ccccc3ccc21 | 1.84 | –
3 | O=c1oc2c3ccccc3ccc2c2[nH]nc(C(F)(F)F)c12 | 1.62 | –
4 | Cc1coc2c1c(=O)oc1c3ccccc3ccc21 | 1.94 | –
5 | O=c1oc2c3ccccc3ccc2c2occ(C(F)(F)F)c12 | 1.44 | –
6 | O=c1oc2cc(Br)ccc2c2[nH]nc(C(F)(F)F)c12 | 7.31 | Activity (3T3-L1 [2]): Toxic
7 | O=c1oc2cc(O)ccc2c2occ(C(F)(F)F)c12 | 1.4 | –
8 | Cc1n[nH]c2c1c(=O)oc1cc(F)ccc12 | 1.46 | –
9 | COc1ccc2c(c1)oc(=O)c1c(C(F)(F)F)coc12 | 2.8 | –
10 | COc1cccc2oc(=O)c3c(C)n[nH]c3c12 | 0.98 | –
11 | OCc1c(C(F)(F)F)coc1-c1ccc2ccccc2c1O | 1.41 | –
12 | COc1ccc2c(c1)oc(=O)c1c(C(F)(F)F)n[nH]c12 | 1.55 | –
13 | CC1(C)Oc2c(c(=O)oc3c2ccc2ccccc23)C1(C)C | 3.22 | –
14 | COc1ccc2c(c1)oc(=O)c1c(C)onc12 | 1.62 | –
15 | COc1ccc2c3c(c(=O)oc2c1)C(O)(C(F)(F)F)CO3 (centres undefined) | 1.39 | –
16 | Cc1coc2c1c(=O)oc1cc(Br)ccc12 | 1.28 | –

Row | SMILES | Activity [1] | also measured
17 | O=c1oc2c3ccccc3ccc2c2occ(C3CC3)c12 | 2.92 | –
18 | Cc1ccc2c(c1)oc(=O)c1c(C)n[nH]c12 | 1.38 | –
19 | COc1cccc2c1oc(=O)c1c(C(F)(F)F)n[nH]c12 | 1.81 | –
20 | Cc1n[nH]c2c1c(=O)oc1cc(Br)ccc12 | 2.12 | –
21 | O=c1oc2c(ccc3ccccc32)c2c1C(O)(C(F)(F)F)CO2 (centres undefined) | 2.19 | –
22 | Cn1ncc2c3ccc4ccccc4c3oc(=O)c21 | 1.44 | –
23 | O=c1oc2cc(OCc3ccncc3)ccc2c2occ(C(F)(F)F)c12 | 1.23 | –
24 | Cc1[nH]nc(-c2ccc3ccccc3c2O)c1C(=O)O | 1.2 | –
25 | COc1ccc2c(c1)oc(=O)c1c(C3CC3)coc12 | 1.96 | –
26 | COc1cccc2c1oc(=O)c1c(C)n[nH]c12 | 4.78 | Activity (3T3-L1 [3]): Active; Activity (3T3-L1 [4]): Active; CC50 [5]: > 100 µM
27 | O=c1oc2c3ccccc3ccc2c2occ(CO)c12 | 1.39 | –
28 | C[C@@H]1c2c(c3ccc4ccccc4c3oc2=O)O[C@@H]1C | 2.1 | inhibition (Mus musculus [6]): Active; inhibition (Mus musculus [7]): Active; inhibition (Mus musculus [8]): Active; Activity (Mus musculus [9]): inactive; Activity (Mus musculus [10]): Active; inhibition (Mus musculus [11]): Active; Activity (Mus musculus [12]): inactive; Activity (Mus musculus [13]): Active; inhibition (Mus musculus [14]): Active; Activity [15]: 30.5 g; inhibition (Mus musculus [16]): Active; Activity (Mus musculus [17]): Active
29 | COc1ccc(-c2n[nH]c(C)c2C(=O)O)c(O)c1 | 1.07 | –
30 | COc1ccc2c(c1)oc(=O)c1c(C)n[nH]c12 | 4.29 | inhibition (Mus musculus [6]): Active; inhibition (Mus musculus [7]): Active; inhibition (Mus musculus [8]): Active; Activity (Mus musculus [9]): inactive; Activity (3T3-L1 [4]): Active; Activity (Mus musculus [10]): Active; inhibition (Mus musculus [11]): Active; Activity (Mus musculus [12]): Active; Activity (Mus musculus [13]): Active; Activity (Mus musculus [18]): Active; CC50 [5]: > 100 µM; inhibition (Mus musculus [14]): Active; Activity [15]: 30 g; Activity (Mus musculus [19]): Active; inhibition (Mus musculus [16]): Active; Activity (Mus musculus [17]): Active
31 | O=c1oc2cc(Br)ccc2c2c1C(O)(C(F)(F)F)CO2 (centres undefined) | 1.08 | –
32 | O=c1oc2cc(O)ccc2c2c1C(O)(C(F)(F)F)CO2 (centres undefined) | 0.99 | –
